MIC data for 1 molecule are collected here from patent publication US12029728B2, “Small molecules with anti-protozoan activity” (New Mexico Tech University Research Park Corporation, priority 2018, dated 2024).

In brackets after ≈: the same amount, converted by molar mass.

The test system of this test is T. cruzi epimastigotes. The test can be described thus: MIC against T. cruzi epimastigotes, ATP assay. Type of test: cell-based. Particulars: Trypanosoma cruzi, 48 hours at 30° C. The protocol:
A 1:20 working dilution of T. cruzi epimastigotes was prepared in LIT1029 medium from a saturated (˜4×10^6 cells/mL) culture. 100 μL of the 1:20 working dilution was plated, and the epimastigotes were incubated with 50 μM, 25 μM, 12.5 μM, 6.25 μM, 3.13 μM, 1.5 μM, or 0 μM Compound 2 for 48 hours at 30° C. After incubation with Compound 2, T. cruzi viability was assessed via an ATP assay. […] An increase in relative light units (RLU) indicates the presence of ATP and viable cells. Phenylarsine oxide (PAO) was used as a control.

Molecule `O=C(NO)C(c1ccccc1)c1c(-c2ccc3ccccc3c2)[nH]c2ccccc12` (stereo not shown) [Compound 2, N-hydroxy-2-(2-(naphthalen-2-yl)-1H-indol-3-yl)-2-phenylacetamide] gave an MIC of roughly 6 µM (≈ 2.35 µg/mL).
